Measurements published in PubChem BioAssay AID2742 (NMMLSC, 2010).
Where “and” joins values, the source holds several entries; their conditions need not be identical. Equal values may be shown once. Calls of active or inactive are those of the source.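 The calls were made as follows: active = fitted half-maximal concentration for changing background-corrected GFP signal at or below a set limit; inactive = the rest.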

Experiment: modulators of MEP2-GFP levels in yeast, dose response, S. cerevisiae, flow cytometry GFP, MLPCN hits (AID 2742);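 also: GFP tag reports level of MEP2 protein as a downstream target of TOR signalling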
Details: S. cerevisiae MEP2-GFP strain, flow cytometry fluorescence, 3 h; at 33 µM (top of the series)

| SMILES | GFP fluorescence (kMESF), higher = increase |
| --- | --- |
| O=C(Nc1cccc(C(F)(F)F)c1)Oc1ccc(Cl)c2cccnc12 | 2.78 kMESF (inactive) |
| c1ccc(-c2cccc(-c3ccccn3)n2)nc1 | 2.86 kMESF (inactive) |
| COc1ccccc1C(=O)NNC(=S)NC(=O)c1ccco1 | 3.64 kMESF (inactive) |
| O=C(NC(=S)Nc1ccc2oc(=O)ccc2c1)c1cccc(Cl)c1 | 1.7 kMESF (inactive) |
| Cc1ccc(N=Nc2ccc(O)c3ncccc23)cc1 | 3.18 kMESF (inactive) |
| Oc1c(CN2CCN(c3ccccc3)CC2)cc(Br)c2cccnc12 | 7.37 kMESF (inactive) |
| C=C1C(O)[C@@H]2O[C@]3(CC[C@H](/C=C/C(C)[C@@H]4CC(C)=CC5(O[C@H](C[C@@](C)(O)C(=O)O)CCC5O)O4)O3)CC[C@H]2O[C@@H]1C(O)CC(C)[C@H]1OC2(CCCCO2)CCC1C (stereo not given in full) | 1.77 kMESF (inactive) |
| CC(C)[C@]1(c2ccccc2)ON(c2ccccc2C(F)(F)F)C1=O | 2.87 kMESF (inactive) |
| O=C(OCn1ncc(Br)c(Br)c1=O)c1ccccc1Cl | 4.8 kMESF (inactive) |
| CCCc1cc(N2CCN(c3ccccn3)CC2)n2nc(C)c(-c3ccccc3)c2n1 | 3.11 kMESF (inactive) |
| CS(=O)(=O)c1sc(C#N)c2c1C(=O)CC(c1ccccc1)C2 (stereo not given) | 4.8 kMESF (inactive) |
| COc1cc(NC(=O)c2cccc(C)c2)ccc1NC(=O)c1cc2ccccc2o1 | 2.2 kMESF (inactive) |
| COc1cc(C=C2C(=O)c3ccccc3C2=O)cc(OC)c1 | 2.05 kMESF (inactive) |
| Nc1ccc2ccc3cccc[n+]3c2c1 | 5.03 kMESF (inactive) |
| O=C(/C=C/Sc1ncn[nH]1)c1ccc(Cl)cc1 | 4.24 kMESF (inactive) |
| O=C(O)c1ccc(COc2ccccc2C=C2C(=O)c3ccccc3C2=O)cc1 | 1.54 kMESF (inactive) |
| CN(Cc1cnc2nc(N)nc(N)c2n1)c1ccc(C(=O)N[C@@H](CCC(=O)O)C(=O)O)cc1 | 2.67 kMESF (inactive) and 1.92 kMESF (inactive) |
| CCOC(=O)C1=C(O)c2ccccc2C(=O)/C1=C\c1ccc(C)cc1 | -34.5 kMESF (inactive) |
| O=[N+]([O-])c1ccc(O)c(/C=N/Nc2ccccn2)c1 | 5.62 kMESF (inactive) |
| Oc1c(I)cc(I)c2cccnc12 | 4.67 kMESF (inactive) |

| SMILES | GFP fluorescence (kMESF), higher = increase |
| --- | --- |
| COc1cc(/C=C/c2ccc3c(Br)cc(Br)c(O)c3n2)ccc1O | 9.24 kMESF (inactive) |
| Cc1cccc(OCCN2CSC(=S)N(C)C2)c1 | 3.71 kMESF (inactive) |
| O=C(/C=C/c1ccccc1[N+](=O)[O-])c1ccccc1Br | 62.3 kMESF (inactive) |
| COc1ccc(C(c2c(C)[nH]n(C(N)=S)c2=O)C(C#N)C#N)cc1 (stereo not given) | 4.93 kMESF (inactive) |
| CCc1ccc(/C=C/C(=O)c2cc(Br)ccc(=O)c2O)cc1 | 5.16 kMESF (inactive) |
| CCOc1cc(C=C2C(=O)c3ccccc3C2=O)ccc1OCC(=O)Nc1ccc(C)cc1 | 1.75 kMESF (inactive) |
| O=[N+]([O-])c1cc(O)c2ncccc2c1 | 5.96 kMESF (inactive) |
| CCN1/C(=C/C(C)=C/c2sc3ccccc3[n+]2CC)Sc2ccccc21 | 4.91 kMESF (inactive) |
| O=C(Nc1nc(-c2ccccn2)cs1)C1COc2ccccc2O1 (stereo not given) | 5.21 kMESF (inactive) |
| Cc1[nH][nH]c(=O)c1C(c1ccc(-c2ccc(Cl)cc2)o1)c1c(C)[nH][nH]c1=O | 3.72 kMESF (inactive) |
| O=c1oc2ccccc2c(O)c1[C@H]1c2ccc(O)cc2Oc2c1c(=O)oc1ccccc21 | 4.67 kMESF (inactive) |
| CC(C)(C)c1nnc(N/N=C/c2cc(Br)ccc2O)n(N)c1=O | 2.57 kMESF (inactive) |
| COc1cc(/C=C2\C(=O)ON=C2c2ccc(Cl)cc2)ccc1O | 3.71 kMESF (inactive) |
| O=[N+]([O-])c1ccc(S(=O)(=O)c2cccc(C(F)(F)F)c2)nc1 | 4.85 kMESF (inactive) |
| COc1ccc(NC(=O)/C(C#N)=C/c2ncc([N+](=O)[O-])n2C)c(OC)c1 | 4.5 kMESF (inactive) |
| N#Cc1c2ccc([N+](=O)[O-])cc2[n+]([O-])n1-c1ccccc1 | 1.82 kMESF (inactive) |
| Cc1ccccc1OCC(=O)NNC(=S)NC(=O)c1ccco1 | 5.41 kMESF (inactive) |
| O=C1C(Cl)=C(N2CCN(Cc3ccccc3)CC2)C(=O)N1c1ccccc1 | 3.31 kMESF (inactive) |
| Cc1ccc(C(=O)NNC(=S)NC(=O)c2ccco2)cc1 | 4.91 kMESF (inactive) |
| Cn1ncc(S(=O)(=O)Cc2ccccc2)c(Cl)c1=O | 4.57 kMESF (inactive) |

| SMILES | GFP fluorescence (kMESF), higher = increase |
| --- | --- |
| CN(c1ccccc1)c1ccc(/C=c2\s/c(=C(/C#N)C(=O)C(C)(C)C)n(Cc3ccco3)c2=O)cc1 | 13.7 kMESF (inactive) |
| CCN(CC)C(=O)Oc1ccnc2cc(Cl)ccc12 | 11.7 kMESF (inactive) |
| C/C(=N/NC(=O)c1ccc(C(C)(C)C)cc1)c1ccccn1 | 5.35 kMESF (inactive) |
| COc1ccc(N2C(=O)/C(=C/c3cccs3)C(=O)NC2=S)cc1 | 4.01 kMESF (inactive) |
| O=C1C(=O)c2ccccc2-c2ccccc21 | 2.76 kMESF (inactive) |
| O=C(Oc1cccc2cccnc12)c1ccc(Br)o1 | 1.82 kMESF (inactive) |
| O=C(C#Cc1ccccc1)c1ccco1 | 5.37 kMESF (inactive) |
| O=C1c2sc3nc4ccccc4n3c2C(=O)N1c1ccccc1Cl | 3.06 kMESF (inactive) |
| CC(Oc1cc2oc(=O)c3c(c2cc1Cl)CCC3)C(=O)NCCN1CCOCC1 (stereo not given) | 2.37 kMESF (inactive) |
| O=c1cc(-c2ccccc2)cc(-c2ccccc2)n1O | 4.49 kMESF (inactive) |
| Cc1ccc(O)c(N=Nc2nccs2)c1 | 2.87 kMESF (inactive) |
| CCOC(=O)CS(=O)(=O)c1nc(-c2ccc(F)cc2)cc(C(F)(F)F)n1 | 5.21 kMESF (inactive) |
| Oc1ccc2ccccc2c1N=Nc1nccs1 | 4.97 kMESF (inactive) |
| CCN1C(=O)/C(=C\C(=O)c2cccs2)c2cc(Br)ccc21 | 9.04 kMESF (inactive) |
| CC(C)C(=O)NC(c1cccs1)c1cc([N+](=O)[O-])c2cccnc2c1O (stereo not given) | 3.41 kMESF (inactive) |
| O=C(NC(=S)NNC(=O)c1cnccn1)c1ccc(Cl)cc1 | 3.51 kMESF (inactive) |
| O=C1C2C3C=CC(CO)(O3)C2C(=O)N1c1ccc(-c2ccccc2)cc1 (stereo not given) | 4.74 kMESF (inactive) |
| O=C1C(Cl)=C(Nc2ccccc2O)C(=O)N1c1ccccc1 | 4.11 kMESF (inactive) |
| CC(C)(C)c1ccc(NC(=O)COC(=O)c2ccc([N+](=O)[O-])s2)cc1 | 2.3 kMESF (inactive) |
| Cc1ccc2[nH]cc(/C=C/c3cc[n+](C)cc3)c2c1 | 4.2 kMESF (inactive) |
